Legend:
[1] = target: T1, LFA-1 binding to immobilized ICAM-1 (Homo sapiens, UniProt P05107+P20701); assay: LFA-1/ICAM-1 protein-protein assay (solid-phase ELISA); settings: read-out: LFA-1/ICAM-1 Protein-Protein Assay IC50
T1 construct: made in house; host or cells: transfected 293 cells (LFA-1)
Summary of the method: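 Human 5dICAM-Ig (ICAM-1 extracellular domain–IgG Fc) coated on plates; membrane-bound LFA-1 from transfected 293 cells (280 ng/mL) added with compound in Mn2+-containing HEPES buffer pH 7.2, 2 h at 37° C. Bound LFA-1 detected via anti-β2 antibody and HRP/TMB at 450 nm; IC50s determined.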

[2] = system: T lymphocyte proliferation (C57BI/6 spleen cells with irradiated BALB/c spleen cells); assay: Mixed lymphocyte reaction (MLR), one-way; assay type: cell-based, mice; settings: Mus musculus, T-lymphocyte; read-out: MLR IC50
Summary of the method: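 Irradiated BALB/c spleen cells mixed with C57BI/6 spleen cells in RPMI1640/10% heat-inactivated FBS/2-mercaptoethanol, with serial antagonist dilutions; 3 days at 5% CO2. Tritiated thymidine (0.5 μCi/well) added on day 3; incorporation counted by liquid scintillation after a further 6 h.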

T1 sequence (P20701 26-1170): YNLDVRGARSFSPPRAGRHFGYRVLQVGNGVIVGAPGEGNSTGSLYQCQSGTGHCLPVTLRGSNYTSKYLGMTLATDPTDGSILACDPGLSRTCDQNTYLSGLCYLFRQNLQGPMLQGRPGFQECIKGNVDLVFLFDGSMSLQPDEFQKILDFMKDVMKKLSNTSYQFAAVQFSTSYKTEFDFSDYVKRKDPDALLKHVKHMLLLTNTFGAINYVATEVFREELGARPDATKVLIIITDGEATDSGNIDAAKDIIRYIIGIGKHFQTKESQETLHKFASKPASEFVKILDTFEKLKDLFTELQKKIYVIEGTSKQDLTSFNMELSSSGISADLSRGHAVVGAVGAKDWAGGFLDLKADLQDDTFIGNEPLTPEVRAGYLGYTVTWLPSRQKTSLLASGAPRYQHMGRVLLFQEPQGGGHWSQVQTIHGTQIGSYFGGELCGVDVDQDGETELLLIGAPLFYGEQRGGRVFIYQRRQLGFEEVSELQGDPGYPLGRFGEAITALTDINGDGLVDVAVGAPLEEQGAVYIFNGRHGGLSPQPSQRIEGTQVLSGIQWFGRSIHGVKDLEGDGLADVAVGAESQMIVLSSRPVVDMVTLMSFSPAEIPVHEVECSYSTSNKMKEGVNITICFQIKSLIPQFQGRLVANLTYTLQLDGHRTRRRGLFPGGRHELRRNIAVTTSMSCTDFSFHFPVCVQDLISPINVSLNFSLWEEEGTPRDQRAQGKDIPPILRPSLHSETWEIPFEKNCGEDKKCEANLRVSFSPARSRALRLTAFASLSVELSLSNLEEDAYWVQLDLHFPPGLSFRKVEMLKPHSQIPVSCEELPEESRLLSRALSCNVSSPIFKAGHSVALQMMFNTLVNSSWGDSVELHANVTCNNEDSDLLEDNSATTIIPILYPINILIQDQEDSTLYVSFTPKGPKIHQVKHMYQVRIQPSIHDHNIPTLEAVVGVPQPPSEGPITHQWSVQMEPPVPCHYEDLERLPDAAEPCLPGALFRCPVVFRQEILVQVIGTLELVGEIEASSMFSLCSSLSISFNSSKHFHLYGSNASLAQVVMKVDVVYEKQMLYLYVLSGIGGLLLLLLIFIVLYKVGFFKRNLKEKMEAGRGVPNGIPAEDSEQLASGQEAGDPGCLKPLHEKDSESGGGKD
T1 sequence (P05107 23-769): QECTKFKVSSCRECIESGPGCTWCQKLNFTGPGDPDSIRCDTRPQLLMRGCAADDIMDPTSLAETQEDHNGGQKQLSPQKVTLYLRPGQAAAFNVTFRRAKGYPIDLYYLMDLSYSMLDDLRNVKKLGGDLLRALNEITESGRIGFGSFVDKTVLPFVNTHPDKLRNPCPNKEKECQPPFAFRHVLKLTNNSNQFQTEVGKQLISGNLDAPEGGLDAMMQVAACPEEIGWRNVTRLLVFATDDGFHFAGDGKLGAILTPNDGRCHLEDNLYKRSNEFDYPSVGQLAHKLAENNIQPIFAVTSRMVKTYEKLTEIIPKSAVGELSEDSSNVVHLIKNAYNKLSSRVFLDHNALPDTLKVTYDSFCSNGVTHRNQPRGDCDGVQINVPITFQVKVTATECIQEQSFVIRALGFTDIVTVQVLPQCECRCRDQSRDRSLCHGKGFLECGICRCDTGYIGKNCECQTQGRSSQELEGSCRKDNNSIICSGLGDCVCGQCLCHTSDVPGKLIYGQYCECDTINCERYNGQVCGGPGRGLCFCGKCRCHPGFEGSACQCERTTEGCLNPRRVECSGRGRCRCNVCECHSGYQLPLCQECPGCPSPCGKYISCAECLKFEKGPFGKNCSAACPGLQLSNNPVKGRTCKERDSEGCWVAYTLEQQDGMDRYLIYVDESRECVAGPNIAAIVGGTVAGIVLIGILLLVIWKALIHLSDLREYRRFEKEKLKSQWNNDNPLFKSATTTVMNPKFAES

IC50 [1]: 2.1 nM
SMILES: O=C(CC1CCCC1)NC[C@H](NC(=O)c1ccc(C(=O)NCc2cccc(O)c2)cc1Cl)C(=O)O [Example 77]
IC50 [2]: 700 nM

Reference: patent US20040006236A1, “Diaminopropionic acid derivatives” (priority 1999, published 2004)
